Data on one substance can be found in patent US20050084546A1, “Antioxidant and antiactinic tea plant products” (priority 2003, published 2005).

Assay [1] deals with Cytochrome C. In words: In vitro cytochrome C oxidation-reduction assay in the presence of isolated neutrophils (antioxidant activity). It counts as biochemical. The source says: An in vitro cytochrome C oxidation-reduction assay conducted in the presence of isolated neutrophils is used to assess the antioxidant activity of a group of test materials comprising aqueous extracts of the inventive mixed tea blend prepared by the method of Example 3 having the concentrations indicated in Table 1, below, and known antioxidant materials, namely green tea extract, white tea extract, grape polyphenols and vitamin E, as controls. Reduction of cytochrome C by free radicals causes an increase in light absorbence at 550 nm. Cytochrome C is an ubiquitous iron-containing cellular respiratory enzyme. Singlet oxygen prevents free radical reduction and the consequent increase in light absorbance. The oxidation-reduction assay determines the ability of the test materials to control the activity of chemically generated singlet oxygen, permitting the reductive free radicals to induce increased light absorbence, which is measured.
The assay system employed, determination of the impact of singlet oxygen on a biological entity, cytochrome C, is believed to be a useful model of in vivo activity. However, the invention is not dependent upon this or any other theory.

Assay [2] relates to fibroblasts and keratinocytes. Nature of the assay: Free radical (ROS, xanthine oxidase/hypoxanthine) cytotoxicity inhibition, MTT dye method. It counts as cell-based. Particulars: about 24 hours. The source says:
Xanthine oxidase and hypoxanthine, referenced “XO” in Table 2, are employed together as a system to generate free radicals such as hydrogen peroxide, the hydroxyl radical and superoxide, as is known in the art. The free radical products of xanthine oxidase and hypoxanthine referenced “ROS” hereinafter, provide a test system which can be used to model the ability of test materials to protect biological organisms against the action of free radicals.
Test 2 determines the ability of the group of test materials employed in Test 1 to reduce ROS cytotoxicity to fibroblasts and keratinocytes. Cells are seeded in 96-well plates and grown for two days. They are then exposed for about 24 hours to hypoxanthine at 100 □ g/ml and to various concentrations of xanthine oxidase, ranging, as shown in Table 2's column headers, from 2 mU/ml to 40 mU/ml. Fresh culture medium is added after exposure to ROS and cell death is assessed by the conventional MTT dye method wherein light absorbence at 570 nm is measured. Only living cells take up the MTT dye which absorbs at the measurement wavelength. The cytotoxicity test results, using the quantity of the test materials listed to inhibit free radical toxicity, are set forth in Table 2, below. The control is an aliquot of water.
A general note: Tetrazolium dyes change colour on reduction, which living cells bring about.

The test system of assay [3] is Fibroblasts. In words: UV cytotoxicity assay, cell count in hemocytometer. It is filed as cell-based. The procedure:
Fibroblasts, grown in Dulbecco medium (DM) supplemented with fetal calf serum are plated in 24 well plates at a density of 20,000 cells per well. Twelve hours after plating, fresh DM with fetal calf serum is added. After an additional 12 hours various test materials as set forth in Table 3, are added to the wells. Six, twelve and twenty four hours later, cultures are exposed to UV at varying low and high doses. The low dose is chosen to stimulate growth and cause a hyper-proliferative response, while the higher dose is chosen to induce cytotoxic effects. After 72 and 144 hours, cells are trypsinized, and counted in a hemocytometer chamber. The cytotoxicity test results using the indicated quantities of the test materials to inhibit free radical toxicity, are set forth in Table 3, below. The control is an aliquot of water.

Assay [4] has as its system stratum corneum (skin cell turnover). Nature of the assay: In vivo inhibition of UV-induced skin cell renewal, dansyl chloride staining technique. Also noted: species or system human. The procedure: The dansyl chloride staining technique is used to measure rates of skin cell turnover, under normal conditions and under conditions of exposure to ultraviolet light with and without protection from various test materials.
Summarizing known procedural methods, the stratum corneum is stained with fluorescent dansyl chloride by applying semi-occlusive patches of 5% dansyl chloride milled into petrolatum for 24 hours. After assuring that the stain is completely taken up by the stratum corneum layers by viewing under a quartz mineral lamp, subjects are instructed to apply water or the test product. Skin sites are treated with the various doses of UV indicated in MED in Table 6A, below, 3 days prior to and 1 day after patching with dansyl chloride. Visual inspection of the sites under UV lamp is made until the stain disappears reflecting the time required for complete turnover of the full thickness stratum corneum. Changes in cell renewal due to test material effects and UV exposure can be expressed as a percentage change compared to water-treated or untreated controls.

For vitamin E, the “Inhibition of Cytochrome C Oxidation” value was determined as 21% in assay [1] (test material 0.1 μg/ml), 15% in assay [1] (test material 1.0 μg/ml), 11% in assay [1] (test material 10 μg/ml) and 14% in assay [1] (test material 25 μg/ml). For the same substance, the “Cell Survival after Exposure to ROS Free Radicals” value in assay [2] (XO 2 mU, hypoxanthine […]) was 89%; in assay [2] (XO 10 mU, hypoxanthine 100 µg/ml), 47%; in assay [2] (XO 20 mU, hypoxanthine 100 µg/ml), 25%; in assay [2] (XO 40 MU, hypoxanthine […]) it was 13%. Besides, the “Cell Survival after Exposure to UV” value in assay [3] (UV 1 mJ/cm2) is recorded as 65%; in assay [3] (UV 2 mJ/cm2), 42%; in assay [3] (UV 5 mJ/cm2), 35%; in assay [3] (UV 10 mJ/cm2) it was 20%. Also, the “Hyperproliferative Effect” value in assay [4] (decrease in turnover time with UV versus no UV) came to 41.9%. Moreover, the “Skin cell turnover, No UV Exposure” value in assay [4] (time for dansyl chloride stain to disappear (Table 5 gives turnover in days), no UV) was determined as 18.1. Moreover, the “Skin cell turnover, UV Exposure” value in assay [4] (time for dansyl chloride stain to disappear (Table 5 gives turnover in days), with UV exposure) was 10.5. In addition, the “Protection against UV-induced hyperproliferation (in words)” value in assay [4] (topical, UV exposure) is given as “no protection”.
